Measurements reported in patent US20190022225A1, “PROTOCOL FOR INCREASING LIFE EXPECTANCY IN A TEST SUBJECT” (Mayo Foundation for Medical Education and Research, priority 2015, published 2019).

What was measured:
[1] = system: IL-6 in senescent IMR90 cells; assay: IL-6 immunofluorescence and ELISA in irradiated senescent IMR90 cells treated with Nutlin-3a; format: cell-based, human
Protocol: Primary human fibroblast (IMR90) cells were induced to senesce by applying 10 Gy of irradiation. Seven days after irradiation (Day 0), cells were treated with 10 μM Nutlin-3a or vehicle (DMSO) for nine days (Day 9). The drug or vehicle was refreshed every three days. Drug/vehicle was removed at Day 9 and the cells were cultured for an additional three days (Day 12). Cells were then fixed with 4% paraformaldehyde and stained by immunofluorescence with a specific anti-IL-6 antibody (R&D, AF-206-NA). Cells were counterstained with DAPI for nuclear visualization. The percent IL-6 positive cells is illustrated in FIG. 12A. IL-6 positive cells were determined in an unbiased manner using CellProfiler software. Three different cultures were assessed. Non-senescent cells had no detectable cells IL-6 production while senescent cells were about 8% positive at day 9 after vehicle (DMSO) treatment (16 days after irradiation). […] At day 12, 3 days after Nutlin-3a was removed and 19 days after irradiation, IL-6 positive cells in the vehicle control were about 9% and Nutlin3a treated cells were less than 1% positive for IL-6.
In another experiment, IMR90 cells were induced to senesce by irradiation (10 Gy). Seven days after irradiation, cells were treated with 10 μM Nutlin-3a or vehicle (DMSO) for nine days (Day 9). The drug or vehicle was refreshed every three days. Drug/vehicle was removed at Day 9 and the cells were cultured for an additional six days. Conditioned media from the treated cells was collected, and IL-6 measurement by ELISA was performed (Perkin Elmer, AL223F). IL-6 levels in culture media were determined by ELISA using a kit according to manufacturer's instructions (AL223F, Perkin Elmer). Cells were fixed with 4% paraformaldehyde and stained by immunofluorescence with a specific anti-IL-6 antibody (R&D, AF-206-NA). The IL-6 level determined by ELISA was normalized to the number of cells in each well. The data are presented in FIG. 22C as a relative level of IL-6 in the treated cells compared to the level in non-senescent cells (NS). […]

[2] = system: doxorubicin-induced senescent foreskin fibroblasts (HCA2) and aortic endothelial cells (Endo Aort); assay: Cell count survival assay of Nutlin-3a on doxorubicin-induced senescent cells; format: cell-based; conditions: doxorubicin 250 nM 24 h; HCA2 9 days, aortic endothelial cells 11 days of Nutlin-3a
Protocol: Foreskin fibroblast cell lines HCA2 and BJ, lung fibroblast cell line IMR90, and mouse embryonic fibroblasts were seeded in six-well plates and induced to senesce with 10 Gy of ionizing radiation (IR) or a 24 hr treatment with doxorubicin (Doxo). Senescent phenotype was allowed to develop for at least 7 days, at which point a cell count was made to determine the baseline number of cells. Nutlin-3a treatment was then initiated for a period of at least 9 days. Media alone or media with drug as appropriate was refreshed at least every three days. At the end of the assay time period, cells are counted. Each condition was seeded in three plate wells and counted independently. Initial cell count serves as a control to determine the induction of senescence, as compared to the last day count without nutlin treatment. Initial non-senescent cell count serves as a proxy to determine Nutlin-3a toxicity.
Foreskin fibroblasts (HCA2) and aortic endothelial cells (Endo Aort) were treated with doxorubicin (250 nM) for one day (24 hours) to induce senescence (see FIG. 1). Eight days following doxorubicin treatment, Nutlin-3a treatment was initiated. HCA2 cells were exposed to Nutlin-3a for 9 days, and aortic endothelial cells were exposed to Nutlin-3a for 11 days. […] Percent survival was calculated as [cell count on the last day of Nutlin-3a treatment/initial cell count on first day of Nutlin-3a treatment].

[3] = system: p16-3MR mice fed a high fat diet; assay: High fat feeding-induced senescence in p16-3MR mice, SA-β-Gal staining of adipose tissue; format: in vivo, mouse; conditions: 25 mg/kg daily for five consecutive days; p=<0.004
Protocol: Groups of p16-3MR mice (n=6) were fed a high fat diet (60% fat) for four months mice or a regular chow diet. The presence of senescence cells was determined by measuring luminescence (i.e., p16 positive cells). […] Animals were then treated with ganciclovir or vehicle to determine if removal of senescent cells reduced the presence of senescent cells in adipose tissue. Groups of animals were treated with ganciclovir or vehicle. Ganciclovir (25 mg/kg) was administered daily for five consecutive days. The presence of senescent cells in perirenal, epididymal, or subcutaneous inguinal adipose tissue was detected by SA-β-Gal staining. Data were analyzed by ANOVA.

Row | Compound | IL-6 level (ELISA), fold lower than DMSO treated senescent cells ([1]; 10 μM for 9 days, then up to 6 days without drug) | percent IL-6 positive cells ([1]; 10 μM, day 9 (16 days after irradiation)) | percent IL-6 positive cells ([1]; day 12, 3 days after drug removal) | sensitivity of doxorubicin-induced senescent cells (percent survival) [2] | presence of senescent cells in epididymal fat (SA-β-Gal) [3]
1 | COc1ccc(C2=N[C@@H](c3ccc(Cl)cc3)[C@@H](c3ccc(Cl)cc3)N2C(=O)N2CCNC(=O)C2)c(OC(C)C)c1 [Nutlin-3a] | 5-9 fold | below 5% | less than 1% | sensitive | –
2 | Nc1nc(O)c2ncn(COC(CO)CO)c2n1 [ganciclovir] | – | – | – | – | significant reduction
